Assay results taken from PMC5321434, “Dihydrobenz[e][1,4]oxazepin-2(3H)-ones, a new anthelmintic chemotype immobilising whipworm and reducing infectivity in vivo” (PLoS Neglected Tropical Diseases, 2017).

Test system: adult T. muris
Test: Ex vivo adult T. muris automated motility assay (primary/secondary screen at 100 μM and dose-response)
Set-up: species or system Trichuris muris
Conditions: 100 μM; for COMBINED_SCREEN_ACTIVITY: combined primary and secondary screen minus log fold change in movement, adult T. muris; for PRIMARY_SCREEN_MINUS_LOG_FOLD_CHANGE_MOVEMENT: primary screen; for PRIMARY_SCREEN_MINUS_LOG_FOLD_CHANGE_MOVEMENT / SECONDARY_SCREEN_MINUS_LOG_FOLD_CHANGE_MOVEMENT: adult T. muris motility; for SECONDARY_SCREEN_MINUS_LOG_FOLD_CHANGE_MOVEMENT: secondary screen
Description: Severe combined immune deficiency (SCID) mice were bred in the Biological Services Facility at the University of Manchester. Both male and female SCID mice were infected with a high dose of 200 infective embryonated T. muris eggs via oral gavage. At day 35 post-infection, groups of 5 mice were killed and their […] colons removed. Guts were opened longitudinally, washed with pre-warmed Roswell Park Memorial Institute (RPMI) 1640 media supplemented with penicillin (500U/ml) and streptomycin (500μg/ml) and adult T. muris worms gently removed using fine forceps. Worms removed from SCID mice were maintained in RPMI-1640 media supplemented with penicillin (500U/ml) and streptomycin (500μg/ml) at approximately 37°C and studied on the same day. Using fine forceps, individual live worms were placed into 96 well plates containing 75μl of RPMI-1640 medium supplemented with penicillin (500U/ml) and streptomycin (500μg/ml) plus 1% final concentration of DMSO or compound dissolved in DMSO. In the primary screen the test compound concentration was 100μM. Plates were then incubated at 37°C, 5% CO2, and motility was analysed after 24 hours. Worm movement was quantified using an automated motility assay. This system gives an estimate of worm movement in each well by thresholding and quantifying pixel intensity variance over time. An earlier version of this system has been previously described. One adult T. muris worm was used per well, with one well per compound in each replicate of the primary screen. The primary screen was repeated each week for a period of four weeks giving four independent biological replicates from separate parasite batches for each compound. Dose-response curves were calculated with the four factor log-logistic model using the R package drc. The primary screen was carried out at 100μM final concentration. Assay plates were assigned unique IDs and statistical analysis was performed without knowledge of compound identities using R scripts. Once hit wells were identified, well/plate positions were mapped to compound identities using DataWarrior [28]. […] Compounds identified as having encouraging activity from the DMSO solution samples were then resynthesized for confirmatory testing.

Compound	COMBINED_SCREEN_ACTIVITY	PRIMARY_SCREEN_MINUS_LOG_FOLD_CHANGE_MOVEMENT	SECONDARY_SCREEN_MINUS_LOG_FOLD_CHANGE_MOVEMENT
COc1cccc(CN2C(=O)COCc3ccc(-c4ccccc4)cc32)c1 [Compound 101]	-0.6789	-0.6789	
COc1ccc(-c2ccc3c(c2)N(Cc2ccccc2)C(=O)COC3)cn1 [Compound 102]	0.7062	0.7062	
COc1cccc(CN2C(=O)COCc3cc(Br)ccc32)c1 [Compound 103]	7.462	7.462	
COc1cccc(CN2C(=O)COCc3ccc(Br)cc32)c1 [Compound 104]	-1.975	-1.975	
COc1cccc(CN2C(=O)COCc3cc(-c4cnn(C)c4)ccc32)c1 [Compound 105]	-0.2739	-0.55	0.002295
O=C1COCc2cc(-c3cccnc3)ccc2N1Cc1ccccc1Cl [Compound 106]	6.595	6.595	
O=C1COCc2ccc(-c3cccnc3)cc2N1Cc1ccccc1Cl [Compound 107]	2.19	2.19	
COCCN1C(=O)COCc2ccc(-c3cccc(C(F)(F)F)c3)cc21 [Compound 108]	-0.2552	-0.2552	
O=C1COCc2cc(-c3cccnc3)ccc2N1Cc1cc(F)cc(F)c1 [Compound 109]	7.462	7.462	
O=C1COCc2ccc(-c3cccnc3)cc2N1Cc1cc(F)cc(F)c1 [Compound 110]	-0.9208	-0.9208	
Cc1ccccc1-c1ccc2c(c1)COCC(=O)N2CCN1CCOCC1 [Compound 111]	-0.2494	-0.2494	
Cc1ccccc1-c1ccc2c(c1)N(CCN1CCOCC1)C(=O)COC2 [Compound 112]	-1.303	-1.303	
Cn1cc(-c2ccc3c(c2)COCC(=O)N3Cc2ccccc2Cl)cn1 [Compound 113]	0.5472	0.5472	
Cn1cc(-c2ccc3c(c2)N(Cc2ccccc2Cl)C(=O)COC3)cn1 [Compound 114]	1.278	1.278	
Cc1ccc(CN2C(=O)COCc3cc(-c4cccc(C#N)c4)ccc32)cc1 [Compound 115]	-2.656	-2.656	
O=C1COCc2ccc(-c3cccc(F)c3)cc2N1CCN1CCOCC1 [Compound 116]	0.5451	0.5451	
O=C(O)c1cccc(-c2ccc3c(c2)N(Cc2ccccc2)C(=O)COC3)c1 [Compound 117]	-1.457	-1.457	
COCc1cccc(-c2ccc3c(c2)N(Cc2ccccc2)C(=O)COC3)c1 [Compound 118]	10.5493	10.5493	
COc1ccccc1-c1ccc2c(c1)COCC(=O)N2CCc1ccccc1 [Compound 119]	-0.8266	-0.8266	
COc1ccccc1-c1ccc2c(c1)COCC(=O)N2Cc1ccc(C)cc1 [Compound 120]	-1.664	-1.664	
COc1ccccc1-c1ccc2c(c1)N(CCc1ccccc1)C(=O)COC2 [Compound 121]	1.0336	1.0336	
Cc1ccccc1CN1C(=O)COCc2ccc(-c3cccc(CO)c3)cc21 [Compound 122]	-0.2289	-1.039	0.5816

Compound	COMBINED_SCREEN_ACTIVITY	PRIMARY_SCREEN_MINUS_LOG_FOLD_CHANGE_MOVEMENT	SECONDARY_SCREEN_MINUS_LOG_FOLD_CHANGE_MOVEMENT
Cc1ccc(CN2C(=O)COCc3cc(-c4cccc(CO)c4)ccc32)cc1 [Compound 123]	-0.1619	-0.1619	
O=C1COCc2cc(-c3ccncc3)ccc2N1Cc1ccc2c(c1)OCO2 [Compound 124]	0.4678	0.4678	
O=C1COCc2cc(-c3cccnc3)ccc2N1Cc1ccc2c(c1)OCO2 [Compound 125]	-0.9605	-0.9605	
COc1cccc(CN2C(=O)COCc3cc(-c4cccc(O)c4)ccc32)c1 [Compound 126]	1.18	1.18	
Cn1cc(-c2ccc3c(c2)COCC(=O)N3Cc2ccc3c(c2)OCO3)cn1 [Compound 127]	0.2993	-0.5635	1.162
COc1cc(F)ccc1-c1ccc2c(c1)COCC(=O)N2Cc1ccccc1 [Compound 128]	3.2501	3.2501	
COc1ccc(F)cc1-c1ccc2c(c1)N(Cc1ccccc1)C(=O)COC2 [Compound 129]	3.716	3.716	
COc1cccc(CN2C(=O)COCc3cc(-c4cccc(F)c4)ccc32)c1 [Compound 130]	0.2069	0.2069	
COc1cccc(CN2C(=O)COCc3ccc(-c4cccc(F)c4)cc32)c1 [Compound 131]	-0.1165	-0.1165	
N#Cc1cccc(-c2ccc3c(c2)N(CCN2CCOCC2)C(=O)COC3)c1 [Compound 132]	-2.183	-2.183	
O=C1COCc2ccc(-c3cccc(O)c3)cc2N1Cc1ccccc1Cl [Compound 133]	-0.006244	-0.006244	
Cc1ccc(-c2ccc3c(c2)N(CCN2CCOCC2)C(=O)COC3)cc1C [Compound 134]	-2.044	-2.044	
COc1ccccc1-c1ccc2c(c1)COCC(=O)N2CCN1CCOCC1 [Compound 135]	-1.035	-1.035	
COc1ccccc1-c1ccc2c(c1)N(CCN1CCOCC1)C(=O)COC2 [Compound 136]	-0.8162	-0.8162	
CC(=O)Nc1cccc(-c2ccc3c(c2)N(Cc2ccccc2)C(=O)COC3)c1 [Compound 137]	5.935	5.935	
O=C1COCc2cc(-c3cc(F)cc(F)c3)ccc2N1CCN1CCOCC1 [Compound 138]	-0.5965	-0.5965	
O=C1COCc2ccc(-c3cc(F)cc(F)c3)cc2N1CCN1CCOCC1 [Compound 139]	-1.36	-1.36	
O=C1COCc2cc(-c3cccc(O)c3)ccc2N1Cc1ccc2c(c1)OCO2 [Compound 140]	-0.481	-0.481	
COc1cccc(CN2C(=O)COCc3cc(-c4ccccc4OC)ccc32)c1 [Compound 141]	-1.328	-1.328	
COc1cccc(CN2C(=O)COCc3cc(-c4cccc(CO)c4)ccc32)c1 [Compound 142]	-0.6408	-0.6408	
COc1cccc(CN2C(=O)COCc3cc(-c4ccc(OC)nc4)ccc32)c1 [Compound 143]	-1.1304	-1.1304	
